According to patent EP0620225B1, “Cephalosporin derivatives” (Basilea Pharmaceutica AG, priority 1993, dated 1994):
Values after ≈ are worked out from the molar mass of the structure shown.

Assays:
[1] = tested on: E.coli 25922; test: Antibacterial spectrum (MIC), agar dilution; format: cell-based; details: Escherichia coli, read-out: MIC
Experimental: (§1) In vitro activity was determined by minimum inhibitory concentration in a microorganism spectum by the agar dilution method in Mueller Hinton agar.

[2] = tested on: E.faecalis 6; test: Antibacterial spectrum (MIC), agar dilution; format: cell-based; details: Enterococcus faecalis, read-out: MIC
Experimental: as §1

[3] = tested on: S.pneumoniae Q19; test: Antibacterial spectrum (MIC), agar dilution; format: cell-based; details: Streptococcus pneumoniae, read-out: MIC
Experimental: as §1

[4] = tested on: P.mirabilis 2117; test: Antibacterial spectrum (MIC), agar dilution; format: cell-based; details: Proteus mirabilis, read-out: MIC
Experimental: as §1

[5] = tested on: S.pyogenes B15; test: Antibacterial spectrum (MIC), agar dilution; format: cell-based; details: Streptococcus pyogenes, read-out: MIC
Experimental: as §1

[6] = tested on: H.influenzae 1; test: Antibacterial spectrum (MIC), agar dilution; format: cell-based; details: Haemophilus influenzae, read-out: MIC
Experimental: as §1

[7] = tested on: L.monocytogenes BK23; test: Antibacterial spectrum (MIC), agar dilution; format: cell-based; details: Listeria monocytogenes, read-out: MIC
Experimental: as §1

[8] = tested on: M.morganii 6H-137; test: Antibacterial spectrum (MIC), agar dilution; format: cell-based; details: Morganella morganii, 6H137, read-out: MIC
Experimental: as §1

[9] = tested on: E.cloacae 908SSi; test: Antibacterial spectrum (MIC), agar dilution; format: cell-based; details: Enterobacter cloacae, read-out: MIC
Experimental: as §1

[10] = tested on: S.aureus 734 MRSA; test: Antibacterial spectrum (MIC), agar dilution; format: cell-based; details: Staphylococcus aureus, read-out: MIC
Experimental: as §1

[11] = tested on: P.aeruginosa 27853; test: Antibacterial spectrum (MIC), agar dilution; format: cell-based; details: Pseudomonas aeruginosa, read-out: MIC
Experimental: as §1

[12] = tested on: C.freundii 902; test: Antibacterial spectrum (MIC), agar dilution; format: cell-based; details: Citrobacter freundii, read-out: MIC
Experimental: as §1

[13] = tested on: S.aureus 6538; test: Antibacterial spectrum (MIC), agar dilution; format: cell-based; details: Staphylococcus aureus, read-out: MIC
Experimental: as §1

[14] = tested on: S.viridans group 016; test: Antibacterial spectrum (MIC), agar dilution; format: cell-based; details: Streptococcus viridans, read-out: MIC
Experimental: as §1

[15] = tested on: E.cloacae 908R; test: Antibacterial spectrum (MIC), agar dilution; format: cell-based; details: Enterobacter cloacae, read-out: MIC
Experimental: as §1

[16] = tested on: N.meningitidis 69480; test: Antibacterial spectrum (MIC), agar dilution; format: cell-based; details: Neisseria meningitidis, read-out: MIC
Experimental: as §1

[17] = tested on: K.pneumoniae 418; test: Antibacterial spectrum (MIC), agar dilution; format: cell-based; details: Klebsiella pneumoniae, read-out: MIC
Experimental: as §1

[18] = tested on: Acinetobacter sp.51-156; test: Antibacterial spectrum (MIC), agar dilution; format: cell-based; details: SP.51156, read-out: MIC
Experimental: as §1

[19] = tested on: S.agalactiae QK44; test: Antibacterial spectrum (MIC), agar dilution; format: cell-based; details: Streptococcus agalactiae, read-out: MIC
Experimental: as §1

[20] = tested on: P.vulgaris 1028; test: Antibacterial spectrum (MIC), agar dilution; format: cell-based; details: Proteus vulgaris, read-out: MIC
Experimental: as §1

[21] = tested on: S.marcescens 69438; test: Antibacterial spectrum (MIC), agar dilution; format: cell-based; details: Serratia marcescens, read-out: MIC
Experimental: as §1

[22] = tested on: X.maltophilia 1AC739; test: Antibacterial spectrum (MIC), agar dilution; format: cell-based; details: Stenotrophomonas maltophilia, read-out: MIC
Experimental: as §1

[23] = tested on: C.freundii 43; test: Antibacterial spectrum (MIC), agar dilution; format: cell-based; details: Citrobacter freundii, read-out: MIC
Experimental: as §1

[24] = tested on: M.catarrhalis RA21; test: Antibacterial spectrum (MIC), agar dilution; format: cell-based; details: Moraxella catarrhalis, read-out: MIC
Experimental: as §1

[25] = tested on: E.faecium; test: In vitro activity against selected species (MIC50, range); format: cell-based; details: Enterococcus faecium, medium MHA; for MIC: MIC range
Experimental: as §1

[26] = tested on: S.aureus Smith; test: Efficacy against systemic infections (septicemia) in mice; format: in vivo; details: Staphylococcus aureus, 96 h, sc 1 and 3 h after challenge, survival day 4
Experimental: (§2) Septicemia was induced in outbred Swiss albino mice (Jbm MoRo [specific pathogen free]; weight 16 to 20 g, Biomedical Research Laboratories, Füllinsdorf, Switzerland). Mice were infected by intraperitoneal injection of diluted overnight cultures of the test organisms. Bacterial challenge doses were 4-10 times the number of organisms required to kill 50% of untreated animals within 48 h. The test compounds were administered p.o. or s.c. 1 and 3 h after the bacterial challenge. To treat the infection with Pseudomonas aeruginosa BA an additional dose was given 5 h after challenge. Control and treatment groups at each dose were composed of five mice each. The 50% effective dose (ED50, in milligrams per kilogram) was calculated by probit analysis as described by Finney (Finney, D.J. 1978, Statistical method in biological assay, 3rd ed. Charles Griffin & Co., Ltd., London), from the survival rates on day 4 after infection.

[27] = tested on: Escherichia coli 25922; test: as above; format: in vivo; details: 96 h, survival day 4
Experimental: as §2

[28] = tested on: S.pneumoniae PEN-R; test: In vitro activity against selected species (MIC50, MIC90, range); format: cell-based; details: Streptococcus pneumoniae; for MIC: MIC range
[29] = tested on: E.faecalis; test: as above; format: cell-based; details: Enterococcus faecalis, medium MHA; for MIC: MIC range
Experimental: as §1

[30] = tested on: S.aureus MRSA; test: as above; format: cell-based; details: Staphylococcus aureus, medium MHA (Mueller Hinton Agar) +NaCl; for MIC: MIC range
Experimental: as §1

[31] = tested on: S.aureus MSSA; test: as above; format: cell-based; details: Staphylococcus aureus, medium MHB (Mueller Hinton Broth); for MIC: MIC range
[32] = tested on: E.faecalis; test: as above; format: cell-based; details: Enterococcus faecalis, medium IsoB
[33] = tested on: S.viridans group; test: as above; format: cell-based; details: Streptococcus viridans
[34] = tested on: M.catarrhalis; test: as above; format: cell-based; details: Moraxella catarrhalis, medium IsoB
[35] = Escherichia coli, E.coli 25922, sc 1 and 3 h after challenge
[36] = medium IsoB (Isosensitest Broth)

`Nc1nc(/C(=N/O)C(=O)N[C@@H]2C(=O)N3C(C(=O)O)=C(/C=C4\CCN(CCF)C4=O)CS[C@H]23)cs1` [F, [6R-[3(E),6α,7β(Z)]]-7-[[(2-Amino-4-thiazolyl)(hydroxyimino)-acetyl]amino] -3-[[1-(2-fluoroethyl)-2-oxo-3-pyrrolidinylidene]methyl] -8-oxo-5-this-1-azabicyclo[4.2.0]-oct-2-ene-2-carboxylic acid] was tested, and the MIC [1] was ≤ 0.06 µg/mL, the MIC [2] was 1 µg/mL (≈ 1.96 µM) and the MIC [3] was ≤ 0.06 µg/mL. For the same compound, the MIC [4] was ≤ 0.06 µg/mL, the MIC [5] was ≤ 0.06 µg/mL and the MIC [6] was 0.12 µg/mL (≈ 0.235 µM). The MIC [7] was 2 µg/mL (≈ 3.92 µM), the MIC [8] was ≤ 0.06 µg/mL and the MIC [9] was 0.12 µg/mL (≈ 0.235 µM). The MIC [10] was 8 µg/mL (≈ 15.7 µM), the MIC [11] was 32 µg/mL (≈ 62.7 µM) and the MIC [12] was 0.12 µg/mL (≈ 0.235 µM). It also gave an MIC [13] of 0.5 µg/mL (≈ 0.979 µM), an MIC [14] of 0.5 µg/mL (≈ 0.979 µM) and an MIC [15] of 16 µg/mL (≈ 31.3 µM). The MIC [16] was ≤ 0.06 µg/mL, the MIC [17] was ≤ 0.06 µg/mL and the MIC [18] was 16 µg/mL (≈ 31.3 µM). For the same compound, the MIC [19] was 0.12 µg/mL (≈ 0.235 µM), the MIC [20] was 2 µg/mL (≈ 3.92 µM) and the MIC [21] was 0.5 µg/mL (≈ 0.979 µM). The MIC [22] was > 32 µg/mL, the MIC [23] was 4 µg/mL (≈ 7.84 µM) and the MIC [24] was 8 µg/mL (≈ 15.7 µM). For the same compound, the MIC [25] was 1 to 16 µg/mL (≈ 1.96 to 31.3 µM), the MIC50 [25] was 2 µg/mL (≈ 3.92 µM) and the ED50 [26] was < 1 mg/kg. For the same compound, the ED50 [27, 35] was < 0.1 mg/kg, the MIC ([28]; medium IsoB + 20% serum) was 0.12 to 0.5 µg/mL and the MIC50 ([28]; medium IsoB + 20% serum) was 0.5 µg/mL. For the same compound, the MIC [29] was 0.5 to 2 µg/mL (≈ 0.979 to 3.92 µM), the MIC50 [29] was 1 µg/mL (≈ 1.96 µM) and the MIC90 [29] was 2 µg/mL (≈ 3.92 µM). The MIC [30] was 8 to 16 µg/mL (≈ 15.7 to 31.3 µM), the MIC50 [30] was 8 µg/mL (≈ 15.7 µM) and the MIC90 [30] was 8 µg/mL (≈ 15.7 µM). For the same compound, the MIC [31] was 0.5 to 1 µg/mL (≈ 0.979 to 1.96 µM), the MIC50 [31] was 0.5 µg/mL (≈ 0.979 µM) and the MIC90 [31] was 1 µg/mL (≈ 1.96 µM).
With `CON1CC/C(=C\C2=C(C(=O)O)N3C(=O)[C@@H](NC(=O)/C(=N\O)c4csc(N)n4)[C@H]3SC2)C1=O` [G] the MIC ([32]; MIC range) was 0.25 to 2 µg/mL (≈ 0.506 to 4.04 µM), the MIC50 [32] was 0.5 µg/mL (≈ 1.01 µM) and the MIC90 [32] was 2 µg/mL (≈ 4.04 µM). For the same compound, the MIC [1] was ≤ 0.06 µg/mL, the MIC [2] was 1 µg/mL (≈ 2.02 µM) and the MIC [3] was ≤ 0.06 µg/mL. The MIC [4] was ≤ 0.06 µg/mL, the MIC [5] was ≤ 0.06 µg/mL and the MIC [6] was 0.12 µg/mL (≈ 0.243 µM). For the same compound, the MIC [7] was 2 µg/mL (≈ 4.04 µM), the MIC [8] was ≤ 0.06 µg/mL and the MIC [9] was 0.25 µg/mL (≈ 0.506 µM). The MIC [10] was 16 µg/mL (≈ 32.4 µM), the MIC [11] was 32 µg/mL (≈ 64.7 µM) and the MIC [12] was ≤ 0.06 µg/mL. The MIC [13] was 0.5 µg/mL (≈ 1.01 µM), the MIC [14] was 0.5 µg/mL (≈ 1.01 µM) and the MIC [15] was 32 µg/mL (≈ 64.7 µM). The MIC [16] was ≤ 0.06 µg/mL, the MIC [17] was ≤ 0.06 µg/mL and the MIC [18] was 8 µg/mL (≈ 16.2 µM). For the same compound, the MIC [19] was 0.25 µg/mL (≈ 0.506 µM), the MIC [20] was 2 µg/mL (≈ 4.04 µM) and the MIC [21] was 1 µg/mL (≈ 2.02 µM). For the same compound, the MIC [22] was > 32 µg/mL, the MIC [23] was 4 µg/mL (≈ 8.09 µM) and the MIC [24] was 16 µg/mL (≈ 32.4 µM). It also gave an MIC [25] of 1 to 8 µg/mL (≈ 2.02 to 16.2 µM), an MIC50 [25] of 4 µg/mL (≈ 8.09 µM) and an MIC50 [33] of 2 µg/mL (≈ 4.04 µM). The MIC90 [33] was 2 µg/mL (≈ 4.04 µM), the MIC ([33]; MIC range) was 0.12 to 8 µg/mL (≈ 0.243 to 16.2 µM) and the ED50 [26] was < 1 mg/kg. The ED50 ([27]; Escherichia coli 25922, po (orally) 1 and 3 h after challenge) was ~3 mg/kg, the ED50 [27, 35] was < 0.1 mg/kg and the MIC [28, 36] was 0.1 to 0.5 µg/mL (≈ 0.202 to 1.01 µM). It also gave an MIC ([28]; medium IsoB + 20% serum) of 0.12 to 0.5 µg/mL, an MIC50 [28, 36] of 0.25 µg/mL (≈ 0.506 µM) and an MIC90 [28, 36] of 0.5 µg/mL (≈ 1.01 µM). For the same compound, the MIC50 ([28]; medium IsoB + 20% serum) was 0.5 µg/mL, the MIC ([34]; MIC range) was 1 to 32 µg/mL (≈ 2.02 to 64.7 µM) and the MIC50 [34] was 4 µg/mL (≈ 8.09 µM). For the same compound, the MIC90 [34] was 16 µg/mL (≈ 32.4 µM), the MIC [29] was 0.5 to 2 µg/mL (≈ 1.01 to 4.04 µM) and the MIC50 [29] was ≤ 0.5 µg/mL. The MIC90 [29] was 2 µg/mL (≈ 4.04 µM), the MIC [30] was 8 to 16 µg/mL (≈ 16.2 to 32.4 µM) and the MIC50 [30] was 16 µg/mL (≈ 32.4 µM). The MIC90 [30] was 16 µg/mL (≈ 32.4 µM), the MIC [31] was 1 to 2 µg/mL (≈ 2.02 to 4.04 µM) and the MIC50 [31] was 1 µg/mL (≈ 2.02 µM). The MIC90 [31] was 1 µg/mL (≈ 2.02 µM).
